In patent publication US20240124483A1, “Methods for the Treatment of Fibrotic Disease” (SHY Therapeutics, LLC, priority 2021, published 2024):
Where two headings read alike, the source gives them in different places.

Columns and labels:
Rho-A = Rho-A (Homo sapiens (Human), UniProt P61586); assay: Ras GTP Binding Domain Inhibition Assay, Rho-A
Procedure: (§1) A Ras Superfamily Activity Assay (as disclosed in International Application No. PCT/US2018/038613, filed Jun. 20, 2018, which is incorporated by reference in its entirety) was used as a specific assay to evaluate compounds against the following for the following Ras Superfamily proteins: KRas wild type, KRas Q61H mutant, KRas G12C mutant, KRas G12D mutant, Rac-1, and Rho-A.
(§2) Buffer-I: • 25 mM Tris-HCl, pH 7.4 • 27 mM KCl • 137 mM NaCl • 1 mM MgCl2 • 1 mM DTT
(§3) Buffer-II: • 50 mM Tris-HCl, pH 7.0 • 1 mM MgCl2 • 1 mM DTT
(§4) The small GTPases proteins: KRas wild type. KRas Q61H mutant, KRas G12C mutant, KRas G12D mutants, Rac-1, and Rho-A were expressed as His-tagged proteins. In addition, the Guanosine nucleotide Exchange Factor (GEF) Sos protein (residues 556-1049) was expressed as a His-tagged protein. In cells, the guanine nucleotide exchange factor Sos protein promotes activation of Ras proteins by stimulating an exchange of GDP for GTP. The inclusion of Sos to the Ras GTP binding domain inhibition assay may be considered as an alternative representation of physiological cellular conditions for evaluating the inhibitory activity of some of the tested small molecules.
(§5) For the assay, all purified small GTPases proteins were diluted in Buffer-I or Buffer-II to a final concentration of 10-30 μg/mL. 200 μL of each diluted protein was added to a nickel-coated 96-well plate and incubated overnight at 4° C. Then the protein solution was discarded and 200 μL of Buffer-I or Buffer-II was added to each well in the presence of 1% DMSO. Compounds to be tested were added to the protein-coated wells at final concentration of 20 μM, and incubated for 3 hours at room temperature with and without 10-30 μg/mL of Sos added to the final hour of the incubation. When performing IC50 measurements a serial dilution of all tested concentrations was added. Then Cy3-GTP or Cy5-GTP was added to each well to a final concentration of 100 nM. The labeled GTP was incubated for 45 minutes at room temperature. Following GTP incubation, wells were washed 3× in Buffer-I or Buffer-II and 200 μL of Buffer-I or Buffer-II was added to each well. Following washes, the amount of bound labeled-GTP was measured using a SpectraMax M3 (Molecular Devices).

KRas G12C mutant = KRas G12C mutant (Homo sapiens (Human), UniProt P01116, G12C); assay: Ras GTP Binding Domain Inhibition Assay, KRas G12C mutant
Procedure: as §1, §2, §3, §4, §5

JNK = JNK Activation Assay in Panc-1 (western blot); format: cell-based, Human; set-up: key: Y = yes; N = No; conditions: at 10 μM
Procedure: Cell lines: Human tumor-derived pancreatic cancer cell line Panc-1 and mouse muscle myoblast C2C12 were purchased from American Type Culture Collection and grown in complete DMEM-High Glucose, supplemented with penicillin (100 U/mL), streptomycin (100 μg/mL), and 10% heat-inactivated FBS at 37° C. in a humidified incubator with 5% CO2.
Method: Cells were plated at 350000 cells/well density in a 12-well plate, allowed 3 hours to adhere to the plate, then starved in the appropriate medium in the presence of 0.5% FBS overnight. The small molecules to be tested were added to the cells in the final concentration of 10 μM in the presence of 0.3% DMSO for 3 hours incubation at 37° C. For IC50 value determination, serial dilutions of compounds were added to cells under the same conditions. Next, Panc-1 cells were stimulated with 10 ng/ml TGF-b1 for 1 hour, and C2C12 cells were stimulated with 10 ng/ml TGF-b1 for 20 minutes (recombinant human TGF-b1, R&D Systems). After stimulation cells were lysed with lysis buffer containing 1% Triton X-100, EDTA, and Halt™ Protease & Phosphatase Inhibitor Cocktail (Thermo Scientific). Protein concentration was assessed by BCA protein assay (Thermo Scientific). Phosphorylation level of JNK was determined by western blot.
Western blot protocol: Equal amounts of protein (15-50 μg) were separated by SDS-PAGE and transferred to nitrocellulose membranes (Invitrogen by Thermo Fisher Scientific). The membrane was stained with Ponceau S Stain (Boston BioProducts) to verify uniform protein loading. Membranes were blocked with 10% milk and phosphorylation levels of Smad2, Smad3, INK and p38 were assessed by incubating overnight at 4° C. with the following antibody: Phospho-SAPK/JNK (Thr183/Tyr185), from Cell Signaling Technology. Then the membranes were incubated with HRP-conjugated secondary antibody (Jackson Immunoresearch, West Grove, PA). Bands were incubated in Amersham ECL Prime Western Blotting Detection Reagent (GE Healthcare) and visualized using the ChemiDoc MP imaging system (Bio-Rad).

KRas wild type = KRas wild type (Homo sapiens (Human), UniProt P01116); assay: Ras GTP Binding Domain Inhibition Assay, KRas wild type
Procedure: as §1, §2, §3, §4, §5

KRas G12D mutant = KRas G12D mutant (Homo sapiens (Human), UniProt P01116, G12D); assay: Ras GTP Binding Domain Inhibition Assay, KRas G12D mutant; conditions: for inhibition at 20 µM: Table 7; for KRas G12D mutant + SOS: % inh. / KRas G12D mutant: % inh.: 20 uM, Table 8
Procedure: as §1, §2, §3, §4, §5

[1] = without SOS, read-out: Rho-A: % inh.
[2] = + SOS, read-out: KRas G12C mutant + SOS: % inh.
[3] = without SOS, read-out: KRas G12C mutant: % inh.
[4] = + SOS, read-out: KRas wild type + SOS: % inh.
[5] = without SOS, read-out: KRas wild type: % inh.
[6] = + SOS, read-out: KRas G12D mutant + SOS: % inh.
[7] = without SOS, read-out: KRas G12D mutant: % inh.

Chain of Rho-A (P61586 whole entry, species assumed, the tested form may be a part): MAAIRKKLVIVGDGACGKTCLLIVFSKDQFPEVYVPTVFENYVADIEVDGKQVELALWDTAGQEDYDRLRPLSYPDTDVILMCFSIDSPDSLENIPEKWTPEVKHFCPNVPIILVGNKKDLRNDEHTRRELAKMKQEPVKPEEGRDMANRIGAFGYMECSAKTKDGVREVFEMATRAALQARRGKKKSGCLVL
Chain of KRas wild type (P01116 other isoform, or with tags, fused parts or gaps): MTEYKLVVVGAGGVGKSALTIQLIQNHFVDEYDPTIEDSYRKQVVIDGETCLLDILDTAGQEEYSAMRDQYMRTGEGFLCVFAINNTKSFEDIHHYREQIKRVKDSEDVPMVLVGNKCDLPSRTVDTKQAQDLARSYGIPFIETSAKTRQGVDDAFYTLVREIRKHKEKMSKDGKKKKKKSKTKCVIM
Chain of KRas G12C mutant (P01116 other isoform, or with tags, fused parts or gaps G12C): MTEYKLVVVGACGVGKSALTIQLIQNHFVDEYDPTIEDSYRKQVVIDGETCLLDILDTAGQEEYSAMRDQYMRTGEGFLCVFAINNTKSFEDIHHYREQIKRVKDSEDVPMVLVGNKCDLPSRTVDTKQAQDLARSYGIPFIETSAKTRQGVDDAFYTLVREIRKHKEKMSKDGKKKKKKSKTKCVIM
Chain of KRas G12D mutant (P01116 other isoform, or with tags, fused parts or gaps G12D): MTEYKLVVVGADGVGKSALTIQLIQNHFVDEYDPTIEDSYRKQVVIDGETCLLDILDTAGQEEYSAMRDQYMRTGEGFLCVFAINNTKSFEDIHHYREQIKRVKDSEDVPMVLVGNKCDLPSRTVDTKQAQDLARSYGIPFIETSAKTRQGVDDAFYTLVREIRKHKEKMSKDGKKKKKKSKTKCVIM

inhibition at 20 µM (Rho-A; [1]) [%]	inhibition at 20 µM (KRas G12C mutant; [2]) [%]	inhibition at 20 µM (KRas G12C mutant; [3]) [%]	inhibition at 20 µM (KRas wild type; [4]) [%]	inhibition at 20 µM (KRas wild type; [5]) [%]	inhibition at 20 µM (KRas G12D mutant; [6]) [%]	KRas G12D mutant + SOS: % inh. (KRas G12D mutant; + SOS)	inhibition at 20 µM (KRas G12D mutant; [7]) [%]	KRas G12D mutant: % inh. (KRas G12D mutant; without SOS)	inhibition at 20 µM (Rho-A; + SOS, read-out: Rho-A + SOS: % inh.) [%]	Compound	Activation of JNK in PANC-1 (JNK)
46 to 75	76 to 100	76 to 100	76 to 100	76 to 100	76 to 100	D (D = 76-100% inhibition)	46 to 75	C (C = 46-75% inhibition)		COCC1(OC)CCN(c2nc(-c3nccn3C)nc3sc(-c4ccn(C(C)C)n4)c(C)c23)C1 (racemic) [Compound 27, rac-6-(1-Isopropyl-1H-pyrazol-3-yl)-4-(3-methoxy-3-(methoxymethyl)pyrrolidin-1-yl)-5-methyl-2-(1-methyl-1H-imidazol-2-yl)thieno[2,3-d]pyrimidine]	Y
26 to 45	76 to 100	46 to 75	76 to 100	46 to 75	76 to 100	D (D = 76-100% inhibition)	26 to 45	B (B = 26-45% inhibition)		COCCn1ccc(-c2sc3nc(-c4nccn4C)nc(NC[C@H]4CC[C@H]4COC)c3c2C)n1 (racemic) [Compound 38, rac-6-(1-(2-Methoxyethyl)-1H-pyrazol-3-yl)-N-(((1S,2R)-2-(methoxymethyl)cyclobutyl)methyl)-5-methyl-2-(1-methyl-1H-imidazol-2-yl)thieno[2,3-d]pyrimidin-4-amine]	Y
46 to 75	76 to 100	76 to 100	76 to 100	76 to 100	76 to 100	D (D = 76-100% inhibition)	46 to 75	C (C = 46-75% inhibition)		COCCn1ccc(-c2sc3nc(-c4nccn4C)nc(N[C@@H]4CC[C@H](OC)C4)c3c2C)n1 (racemic) [Compound 39, rac-N-((1R,3S)-3-Methoxycyclopentyl)-6-(1-(2-methoxyethyl)-1H-pyrazol-3-yl)-5-methyl-2-(1-methyl-1H-imidazol-2-yl)thieno[2,3-d]pyrimidin-4-amine]	Y
0	76 to 100	26 to 45	76 to 100	26 to 45	46 to 75	C (C = 46-75% inhibition)	1 to 25	A (A = 1-25% inhibition)		COc1cccc(-c2sc3nc(-c4nccn4C)nc(N[C@@H]4CC[C@@H](OC)C4)c3c2-c2ccccc2)c1F (racemic) [Compound 41, 6-(2-Fluoro-3-methoxyphenyl)-N-((1R,3R)-3-methoxycyclopentyl)-2-(1-methyl-1H-imidazol-2-yl)-5-phenylthieno[2,3-d]pyrimidin-4-amine]	Y
26 to 45	76 to 100	26 to 45	76 to 100	26 to 45	76 to 100	D (D = 76-100% inhibition)	1 to 25	A (A = 1-25% inhibition)		COc1cccc(-c2sc3nc(-c4nccn4C)nc(N[C@@H]4CC[C@@H](OC)C4)c3c2C)c1F (racemic) [Compound 43, rac-6-(2-Fluoro-3-methoxyphenyl)-N-((1R,3R)-3-methoxycyclopentyl)-5-methyl-2-(1-methyl-1H-imidazol-2-yl)thieno[2,3-d]pyrimidin-4-amine]	Y
0	76 to 100	26 to 45	76 to 100	46 to 75	46 to 75	C (C = 46-75% inhibition)	76 to 100	D (D = 76-100% inhibition)		COc1cc(-c2sc3nc(-c4nccn4C)nc(N[C@@H]4CC[C@H](OC)C4)c3c2-c2ccccc2)ccn1 (racemic) [Compound 44, rac-N-((1R,3S)-3-Methoxycyclopentyl)-6-(2-methoxypyridin-4-yl)-2-(1-methyl-1H-imidazol-2-yl)-5-phenylthieno[2,3-d]pyrimidin-4-amine]	Y
46 to 75	76 to 100	46 to 75	76 to 100	76 to 100	76 to 100	D (D = 76-100% inhibition)	46 to 75	C (C = 46-75% inhibition)		COc1cc(-c2sc3nc(-c4nccn4C)nc(N[C@@H]4CC[C@@H](OC)C4)c3c2-c2ccccc2)ccn1 (racemic) [Compound 47, N-((1R,3R)-3-Methoxycyclopentyl)-6-(2-methoxypyridin-4-yl)-2-(1-methyl-1H-imidazol-2-yl)-5-phenylthieno[2,3-d]pyrimidin-4-amine]	Y
26 to 45	76 to 100	46 to 75	76 to 100	46 to 75	46 to 75	C (C = 46-75% inhibition)	46 to 75	C (C = 46-75% inhibition)	26 to 45	CO[C@@H]1CC[C@H](Nc2nc(-c3nccn3C)nc3sc(-c4ccn(C(C)C)n4)c(-c4ccccc4)c23)C1 (single isomer, unassigned) [Compound 11]	Y
46 to 75		46 to 75	1 to 25	1 to 25	1 to 25	A (A = 1-25% inhibition)	76 to 100	D (D = 76-100% inhibition)		COCCNc1nc(-c2nccn2C)nc2sc(-c3ccccc3)c(-c3ccccc3)c12 [Compound 1, N-(2-Methoxyethyl)-2-(1-methyl-1H-imidazol-2-yl)-5,6-diphenylthieno[2,3-d]pyrimidin-4-amine]	Y
